Data on 3 compounds can be found in ChEMBL document CHEMBL1159227, “Piperogalin, a new prenylated diphenol from Peperomia galioides” (1995).

The source made the active and inactive calls. The rule behind the calls is not given here.

The test system of assay [1] is Leishmania amazonensis. Briefly: Antileishmanial activity against Leishmania amazonensis promastigotes assessed as total lysis of parasites at 50 ug/ml after 24 hrs at 28 degC. It is filed as functional, organism-based.
Assay [2] relates to Leishmania braziliensis. Briefly: Antileishmanial activity against Leishmania braziliensis 2903 promastigotes assessed as total lysis of parasites at 50 ug/ml after 24 hrs at 28 degC. It is filed as functional, organism-based.
For assay [3], the system named is Leishmania amazonensis. In words: Antileishmanial activity against Leishmania amazonensis promastigotes assessed as immobilized parasites at 10 ug/ml after 24 hrs at 28 degC. In kind it is functional, organism-based.
The test system of assay [4] is Leishmania braziliensis. In words: Antileishmanial activity against Leishmania braziliensis 2903 promastigotes assessed as total lysis of parasites at 25 ug/ml after 24 hrs at 28 degC. It is filed as functional, organism-based.
The subject of assay [5] is Leishmania braziliensis. Briefly: Antileishmanial activity against Leishmania braziliensis 2903 promastigotes assessed as total lysis of parasites at 100 ug/ml after 24 hrs at 28 degC. In kind it is functional, organism-based.
Assay [6] deals with Leishmania donovani. Briefly: Antileishmanial activity against Leishmania donovani PP75 promastigotes assessed as total lysis of parasites at 25 ug/ml after 24 hrs at 28 degC. It is filed as functional, organism-based.
Assay [7] relates to Leishmania amazonensis. Briefly: Antileishmanial activity against Leishmania amazonensis promastigotes assessed as total lysis of parasites at 25 ug/ml after 24 hrs at 28 degC. In kind it is functional, organism-based.
The test system of assay [8] is Leishmania donovani. In words: Antileishmanial activity against Leishmania donovani PP75 promastigotes assessed as total lysis of parasites at 50 ug/ml after 24 hrs at 28 degC. In kind it is functional, organism-based.
Assay [9] has as its system Trypanosoma cruzi. In words: Antitrypanosomal activity against Trypanosoma cruzi Y trypomastigotes assessed as lysis of trypomastigotes at 250 ug/ml after 24 hrs at 4 degC. In kind it is functional.
Assay [10] has as its system Leishmania amazonensis. Briefly: Antileishmanial activity against Leishmania amazonensis H142 promastigotes assessed as total lysis of parasites at 100 ug/ml after 24 hrs at 28 degC. It is filed as functional, organism-based.
The subject of assay [11] is Leishmania braziliensis. Briefly: Antileishmanial activity against Leishmania braziliensis 2903 promastigotes assessed as immobilized parasites at 10 ug/ml after 24 hrs at 28 degC. In kind it is functional, organism-based.
In assay [12] the test system is Leishmania donovani. Briefly: Antileishmanial activity against Leishmania donovani PP75 promastigotes assessed as total lysis of parasites at 100 ug/ml after 24 hrs at 28 degC. In kind it is functional, organism-based.
The subject of assay [13] is Leishmania donovani. Briefly: Antileishmanial activity against Leishmania donovani PP75 promastigotes assessed as immobilized parasites at 10 ug/ml after 24 hrs at 28 degC. In kind it is functional, organism-based.
Assay [14] concerns Leishmania donovani. In words: Antileishmanial activity against Leishmania donovani PP75 promastigotes assessed as lysis of parasites at 10 ug/ml after 24 hrs at 28 degC. In kind it is functional.
Assay [15] deals with Leishmania braziliensis. In words: Antileishmanial activity against Leishmania braziliensis 2903 promastigotes assessed as lysis of parasites at 10 ug/ml after 24 hrs at 28 degC. It is filed as functional.
Assay [16] deals with Leishmania amazonensis. Briefly: Antileishmanial activity against Leishmania amazonensis promastigotes assessed as lysis of parasites at 10 ug/ml after 24 hrs at 28 degC. It is filed as functional.
The test system of assay [17] is Leishmania braziliensis. In words: Antileishmanial activity against Leishmania braziliensis 2903 promastigotes assessed as immobilized parasites at 100 ug/ml after 24 hrs at 28 degC. It is filed as functional, organism-based.

`CC(C)=CCC/C(C)=C/CC/C(C)=C/Cc1c(O)cc(C)cc1O` [GRIFOLIN]: the outcome in [1], in assay [2], in assay [3], in [4], in assay [5] and in [6] was Active. The outcome in assay [7], in assay [8], in [10], in [11], in assay [12] and in [13] was Active. Besides, in [9], the Activity was determined as 68%.

Consider `CC(C)=CCC/C(C)=C/Cc1c(O)cc(C)c(CC=C(C)C)c1O` [PIPEROGALIN], for which the result in assay [1], in assay [4], in [5], in assay [6], in [7] and in [8] was Active. The outcome in assay [10] and in [12] was Active. In addition, the Activity in assay [14] is over 90%; in [9], 42%; in [15] it was over 90%; in assay [16] it was over 90%.

`CC(C)=CCC/C(C)=C/CC/C(C)=C/Cc1c(O)cc(C)c(C(=O)O)c1O` [GRIFOLIC ACID]: the Activity in assay [9] came out at 0%. Moreover, the result in [10], in assay [12] and in assay [17] was Active.
